Read-outs that look alike come from different tables or passages of the source.
Key:
IMP-1 = IMP-1 (Serratia marcescens, UniProt P52699); assay: biochemical; assay type: biochemical; conditions: fluorescence assay, CCF2-FA substrate, 2 pM enzyme, 2 hours at 25° C.; read-out: IMP-1 IC50
Method in brief: (§1)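 Two-hour, 25° C incubation of enzyme with inhibitor and CCF2-FA (7-hydroxycoumarin–cephalosporin–fluorescein). Fluorescence read-out; IC50 via 4-parameter fit.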

NDM-1 = NDM-1 (Klebsiella pneumoniae, UniProt C7C422); assay: biochemical; assay type: biochemical; conditions: fluorescence assay, CCF2-FA substrate, 1 pM enzyme, 2 hours at 25° C.; read-out: NDM-1 IC50
NDM-1, sequence (C7C422 whole entry, looked up, species assumed): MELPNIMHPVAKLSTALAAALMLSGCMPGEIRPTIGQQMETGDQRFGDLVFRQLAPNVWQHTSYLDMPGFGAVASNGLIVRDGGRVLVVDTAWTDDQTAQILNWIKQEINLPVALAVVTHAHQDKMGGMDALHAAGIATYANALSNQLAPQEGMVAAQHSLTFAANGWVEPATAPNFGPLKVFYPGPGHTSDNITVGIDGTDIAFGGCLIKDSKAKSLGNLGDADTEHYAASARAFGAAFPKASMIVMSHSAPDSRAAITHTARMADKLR
Method in brief: as §1

VIM-1 = VIM-1 (Pseudomonas aeruginosa (strain ATCC 15692 / DSM 22644 / CIP 104116 / JCM 14847 / LMG 12228 / 1C / PRS 101 / PAO1), UniProt A0A0F7KYQ8); assay: biochemical; conditions: CCF2-FA substrate, 30 pM enzyme, 2 hours at 25° C.
Method in brief: as §1

[1] = tested on: Escherichia coli expressing NDM-1 (CLB30005, CLB30016); assay type: cell-based; conditions: with imipenem 1 μg/ml; for Escherichia coli expressing NDM-1 (CLB30016) MITC95: 95% inhibition of bacterial growth; for Escherichia coli MITC95: NDM-1 strain, 95% inhibition of growth
Method in brief: (§2)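 Clinical isolates (E. coli NDM-1, S. marcescens IMP-1, K. pneumoniae VIM-1) were diluted 1:100 from saline suspension into 1.1×CAMHB and exposed to test compound with imipenem at 1 μg/ml. Plates were incubated at 35° C for 22 hours to 24 hours, and growth was read by absorbance.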

[2] = tested on: Klebsiella pneumoniae expressing VIM-1 (IHMA599644); assay type: cell-based; conditions: for Klebsiella pneumoniae expressing VIM-1 (IHMA599644) MITC95: with imipenem 1 μg/ml, 95% inhibition of bacterial growth; for Klebsiella pneumoniae MITC95: VIM-1 strain IHMA599644, with imipenem 1 μg/ml, 95% inhibition of growth
Method in brief: as §2

[3] = tested on: Serratia marcescens expressing IMP-1 (CL5741); assay type: cell-based; conditions: for Serratia marcescens expressing IMP-1 (CL5741) MITC95: with imipenem 1 μg/ml, 95% inhibition of bacterial growth; for Serratia marcescens MITC95: IMP-1 strain CL5741, with imipenem 1 μg/ml, 95% inhibition of growth
Method in brief: as §2

[4] = tested on: Pseudomonas aeruginosa efflux+ (MB9798), IMP-1; assay type: cell-based; conditions: concentration restoring susceptibility to imipenem at 2 μg/mL in the presence of a class A, C, D serine β-lactamase inhibitor closely related to relebactam
Method in brief: (§3)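 P. aeruginosa PAO1-derived IMP-1 strains, efflux+ MB9798 and efflux− MB9799, tested by standard microbroth MIC with imipenem and/or ceftazidime fixed, usually at CLSI breakpoint, plus fixed class A/C β-lactamase inhibitor against AmpC. Inhibitor titrated; concentration restoring susceptibility recorded; MB9798/MB9799 fold difference indicates efflux.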

[5] = tested on: Pseudomonas aeruginosa efflux− (MB9799), IMP-1; assay type: cell-based; conditions: concentration restoring susceptibility to imipenem at 2 μg/mL in the presence of a class A, C, D serine β-lactamase inhibitor closely related to relebactam
Method in brief: as §3

[6] = tested on: Pseudomonas aeruginosa MB9798 vs MB9799; conditions: ratio MITC95 PA_9798/MITC95 PA_9799
Method in brief: as §3

[7] = fluorescence assay, read-out: VIM-1 IC50

IMP-1, sequence (P52699 whole entry, looked up, species assumed): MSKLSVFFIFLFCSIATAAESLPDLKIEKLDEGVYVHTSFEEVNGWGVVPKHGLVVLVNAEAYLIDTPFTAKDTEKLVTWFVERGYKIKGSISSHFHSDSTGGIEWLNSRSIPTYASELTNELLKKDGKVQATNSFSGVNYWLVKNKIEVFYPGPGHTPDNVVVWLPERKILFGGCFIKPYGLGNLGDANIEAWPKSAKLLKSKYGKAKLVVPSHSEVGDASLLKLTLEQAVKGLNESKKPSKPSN

Row | Structure (SMILES) | IC50 (IMP-1) | IC50 (NDM-1) | IC50 (VIM-1; VIM-1 IC50, fluorescence assay) | Escherichia coli expressing NDM-1 (CLB30016) MITC95 [1] | Klebsiella pneumoniae expressing VIM-1 (IHMA599644) MITC95 [2] | Serratia marcescens expressing IMP-1 (CL5741) MITC95 [3] | P. aeruginosa expressing IMP-1, efflux + (MB9798) MITC95 [4] | P. aeruginosa expressing IMP-1, efflux − (MB9799) MITC95 [5] | Efflux ratio [6] | IC50 (VIM-1; [7]) | Escherichia coli MITC95 [1] | Klebsiella pneumoniae MITC95 [2] | Serratia marcescens MITC95 [3]
1 | NS(=O)(=O)c1c(S(=O)(=O)N[C@@H]2CCNC2)ccc(-c2cccc3[nH]nnc23)c1-c1nn[nH]n1 [Example 235, (R)-4-(1H-benzo[d][1,2,3]triazol-4-yl)-N^1-(pyrrolidin-3-yl)-3-(2H-tetrazol-5-yl)benzene-1,2-disulfonamide] | 440 pM | 30.8 pM | 105 pM | 1.563 µM | 3.125 µM | 0.7813 µM | 0.7813 µM | 1.563 µM | 0.50 | – | – | – | –
2 | NCCNS(=O)(=O)c1ccc(-c2cccc3[nH]nnc23)c(-c2nn[nH]n2)c1S(N)(=O)=O [Example 236] | 544 pM | 64.7 pM | – | 3.125 µM | 1.563 µM | 0.7813 µM | 0.7813 µM | 0.7813 µM | 1.00 | 130 pM | – | – | –
3 | C[C@H](CN)NS(=O)(=O)c1ccc(-c2cccc3[nH]nnc23)c(-c2nn[nH]n2)c1S(N)(=O)=O [Example 237] | 120 pM | 13.4 pM | – | 3.125 µM | 1.563 µM | 1.563 µM | 0.7813 µM | 1.563 µM | 0.50 | 55.2 pM | – | – | –
4 | NS(=O)(=O)c1c(S(=O)(=O)N[C@@H]2CCNC2)ccc(-c2cccc3nonc23)c1-c1nn[nH]n1 [Example 238] | 800 pM | 111 pM | – | 1.563 µM | 1.563 µM | 0.7813 µM | 3.125 µM | 0.7813 µM | 4.00 | 65.3 pM | – | – | –
5 | NCCNS(=O)(=O)c1ccc(-c2cccc3nonc23)c(-c2nn[nH]n2)c1S(N)(=O)=O [Example 239] | 1060 pM | 439 pM | – | 0.7813 µM | 3.125 µM | 1.563 µM | 6.25 µM | 0.7813 µM | 8.00 | 113 pM | – | – | –
6 | Nc1nc2c(-c3ccc(S(=O)(=O)N[C@@H]4CNC[C@@H]4N)c(S(N)(=O)=O)c3-c3nn[nH]n3)cccc2[nH]1 [Example 240] | 745 pM | 56.9 pM | 169 pM | 0.1953 µM | 1.563 µM | 0.7813 µM | 0.7813 µM | 0.7813 µM | 1.00 | – | – | – | –
7 | Nc1nc2c(-c3ccc(S(=O)(=O)N[C@H]4CNC[C@H]4N)c(S(N)(=O)=O)c3-c3nn[nH]n3)cccc2[nH]1 [Example 241] | 738 pM | 53.6 pM | 182 pM | 0.5208 µM | 1.302 µM | 1.042 µM | 0.651 µM | 0.7813 µM | 0.83 | – | – | – | –
8 | CNc1ccc(-c2ccc(S(=O)(=O)N[C@@H]3CCNC3)c(S(N)(=O)=O)c2-c2nn[nH]n2)cn1 [Example 242] | 157 pM | 61.1 pM | – | 0.7813 µM | 1.563 µM | 0.7813 µM | 0.7813 µM | 0.7813 µM | 1.00 | 84.1 pM | – | – | –
9 | CNc1ccc(-c2ccc(S(=O)(=O)NCCN)c(S(N)(=O)=O)c2-c2nn[nH]n2)cn1 [Example 243] | 312 pM | 276 pM | – | – | – | – | 0.7813 µM | 0.7813 µM | 1.00 | 194 pM | 0.3906 µM | 1.563 µM | 0.3906 µM
10 | CN([C@H]1CCNC1)S(=O)(=O)c1ccc(-c2cccc3[nH]c(N)nc23)c(-c2nn[nH]n2)c1S(N)(=O)=O [Example 244, (S)-4-(2-amino-1H-benzo[d]imidazol-7-yl)-N1-methyl-N1-(pyrrolidin-3-yl)-3-(1H-tetrazol-5-yl)benzene-1,2-disulfonamide] | 6580 pM | 1300 pM | – | – | – | – | 1.563 µM | 0.7813 µM | 2.00 | 6750 pM | 0.7813 µM | 1.563 µM | 1.563 µM
11 | NCCN1CC[C@@H](NS(=O)(=O)c2ccc(-c3cccc4[nH]c(N)nc34)c(-c3nn[nH]n3)c2S(N)(=O)=O)C1 [Example 246, (R)-4-(2-amino-1H-benzo[d]imidazol-4-yl)-N1-(1-(2-aminoethyl)pyrrolidin-3-yl)-3-(2H-tetrazol-5-yl)benzene-1,2-disulfonamide] | 852 pM | 40.5 pM | 120 pM | – | – | – | 1.563 µM | 0.7813 µM | 2.00 | – | 0.7813 µM | 1.563 µM | 1.563 µM
12 | NCC(CO)(CO)NS(=O)(=O)c1ccc(-c2cccc3[nH]c(N)nc23)c(-c2nn[nH]n2)c1S(N)(=O)=O [Example 247, 4-(2-amino-1H-benzo[d]imidazol-4-yl)-N-1-(1-amino-3-hydroxy-2-(hydroxymethyl)propan-2-yl)-3-(2H-tetrazol-5-yl)benzene-1,2-disulfonamide] | 504 pM | 33.1 pM | – | – | – | – | 1.563 µM | 0.7813 µM | 2.00 | 149 pM | 0.7813 µM | 3.125 µM | 1.563 µM
13 | Nc1nc2c(-c3ccc(S(=O)(=O)NC[C@]4(N)CCNC4)c(S(N)(=O)=O)c3-c3nn[nH]n3)cccc2[nH]1 [Example 250, (S)-4-(2-amino-1H-benzo[d]imidazol-4-yl)-N1-((3-aminopyrrolidin-3-yl)methyl)-3-(2H-tetrazol-5-yl)benzene-1,2-disulfonamide] | 513 pM | 33.5 pM | – | – | – | – | 0.7813 µM | 0.7813 µM | 1.00 | 200 pM | 0.3906 µM | 1.563 µM | 0.7813 µM
14 | Nc1nc2c(-c3ccc(S(=O)(=O)NC[C@@]4(N)CCNC4)c(S(N)(=O)=O)c3-c3nn[nH]n3)cccc2[nH]1 [Example 251, (R)-4-(2-amino-1H-benzo[d]imidazol-4-yl)-N1-((3-aminopyrrolidin-3-yl)methyl)-3-(2H-tetrazol-5-yl)benzene-1,2-disulfonamide] | 755 pM | 56.7 pM | – | – | – | – | 0.7813 µM | 0.7813 µM | 1.00 | 194 pM | 0.7813 µM | 1.563 µM | 0.7813 µM
